In patent US20180353501A1 (Arvinas, Inc., priority 2017, published 2018):

Molecular target: T1, FLAG-p38δ (Homo sapiens, UniProt O15264)
T1 construct: expressed in transfected cells; host or cells: HeLa cells, transient transfection with Lipofectamine 2000
T1 sequence (O15264 1-365): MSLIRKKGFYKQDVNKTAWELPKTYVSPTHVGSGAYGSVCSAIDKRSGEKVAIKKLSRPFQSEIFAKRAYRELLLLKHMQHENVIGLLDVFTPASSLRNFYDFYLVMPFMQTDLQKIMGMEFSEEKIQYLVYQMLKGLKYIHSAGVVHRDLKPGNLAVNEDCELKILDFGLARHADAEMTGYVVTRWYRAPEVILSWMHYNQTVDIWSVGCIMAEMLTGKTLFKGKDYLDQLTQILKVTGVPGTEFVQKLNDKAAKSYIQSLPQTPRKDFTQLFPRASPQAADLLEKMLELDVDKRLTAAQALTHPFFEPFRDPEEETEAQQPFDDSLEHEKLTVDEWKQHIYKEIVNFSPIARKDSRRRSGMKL
Assay: Ubiquitination assay, HeLa cells co-transfected with HA-Ub and FLAG-p38δ
Assay type: cell-based
Conditions: 1 μM
Text: FIGS. 15A, 15B, and 15C. Differential p38δ:PROTAC:VHL ternary complex affinities result in distinct cellular ubiquitination outcomes. (A) Both exemplary compound 50 and 46 pull-down p38δ in vitro, however compound 46 maintains ternary complex at lower concentrations. As in FIG. 14A, GST-tagged VBC was used as a bait to trap recombinant p38δ in the presence of vehicle (DMSO) or the indicated concentrations of compound 50 or 46. The rightmost lane represents a 1:25 dilution of initial input protein used in each pull-down. […] Samples were assessed by western blot and CUL2 and α-tubulin serve as positive and negative GST-VBC immunoprecipitation controls, respectively. […] FLAGimmunoprecipitated lysates were separated by SDS-PAGE and assessed via western blots detecting HA (Ub). […]
HeLa cells (2×10^6) were seeded into 10 cm dishes and allowed to adhere overnight. […] Lysates were spun down at 14,000×g at 4° C. for 20 minutes and protein content was measured by Pierce BCA Protein Assay (ThermoFisher Scientific). […] Immunoprecipitated protein was eluted off of the beads by heating at 95° C. for 5 minutes and the supernatant was run on an SDS-PAGE gel and evaluated for the presence of immunoprecipitated FLAG-tagged proteins (anti-FLAG M2, Sigma #F1804), as well as ubiquitinated FLAG-tagged proteins (anti-HA-tag (6E2), CST #2367). […]

Compound	ubiquitination of FLAG-immunoprecipitated p38δ
COc1cc2c(Oc3ccc(NC(=O)C4(C(=O)Nc5ccc(F)cc5)CC4)cc3F)ccnc2cc1OCCOCCOCCOc1cc(-c2scnc2C)ccc1CNC(=O)[C@@H]1C[C@@H](O)CN1C(=O)[C@H](C(C)C)N1Cc2ccccc2C1=O [compound 46]	levels of ubiquitination of FLAG-immunoprecipitated p38δ greater than control cells
COc1cc2c(Oc3ccc(NC(=O)C4(C(=O)Nc5ccc(F)cc5)CC4)cc3F)ccnc2cc1OCCCCOCCCCOCC(=O)N[C@H](C(=O)N1C[C@H](O)C[C@H]1C(=O)NCc1ccc(-c2scnc2C)cc1)C(C)(C)C [compound 50, N-(3-fluoro-4-((7-(4-(4-(2-(((S)-1-((2S,4R)-4-hydroxy-2-((4-(4-methylthiazol-5-yl)benzyl)carbamoyl)pyrrolidin-1-yl)-3,3-dimethyl-1-oxobutan-2-yl)amino)-2-oxoethoxy)butoxy)buto-xy)-6-methoxyquinolin-4-yl)oxy)phenyl)-N-(4-fluorophenyl)cyclopropane-1,1-dicarboxa-mide]	far less abundant
